Experimental data from US20140314857A1, “FORMULATIONS FOR ENHANCED BIOAVAILABILITY OF ZANAMIVIR” (priority 2012, published 2014).

Experiment: Intraduodenal bioavailability of zanamivir from glycerol and PBS formulations, enhancer pre-dose (Example 6)
Details: male, Sprague-Dawley, rat, in vivo, ID 1.5 mg/animal; for concentration at 0.25 hr / concentration at 0.5 hr / concentration at 0.83 hr / concentration at 1 hr / concentration at 1.5 hr / concentration at 2 hr: 1.5 mg/animal, Plasma concentration
From the text: Male Sprague-Dawley rats (Hilltop Labs), 3 animals per treatment group, 250-350 grams in weight, were fitted with a jugular vein cannula (JVC). Animals intended for intraduodenal dosing were also fitted with one or more intraduodenal cannula (IDC) and those intended for intravenous dosing were fitted with a second JVC. Food was withheld from the animals for a minimum of twelve hours prior to test article administration and was returned approximately four hours post-dose. Water was supplied ad libitum.
Intraduodenal doses composed of 1.5 mg of zanamivir and varying amounts of an enhancer (glycerol or Capmul MCM L8) were injected directly into the duodenum via the IDC. Intravenous dosing was conducted by the injection of 1.5 mg of zanamivir in 200 μL of PBS through a JVC. For some experiments, the absorption enhancer was administered intraduodenally 2 hr prior to administering 1.5 mg of zanamivir in PBS through a second IDC. Each intraduodenal dose was followed with the introduction of a small air bubble (˜10 μL) in the cannula followed by a flush of 125 μL of PBS to ensure the dose was given in full. The volume of PBS used for cannula flush was consistent across the treatment groups. The cannula was tied to prevent the PBS remaining in the cannula from entering the duodenum.
Blood samples collected via the JVC, approximately 400 μL each, were obtained at 2 min, 5 min, 15 min, 30 min, 60 min, 90 min, and 120 min, with sodium heparin used as an anti-coagulant. Each sample was placed into a chilled tube containing the anticoagulant and kept on ice until centrifugation at 4° C., 3,000×g, for 5 min. The plasma supernatants were stored at −70° C. until LC-MS analysis.
Dosing solution samples were assayed by LC-MS/MS using electrospray ionization. The chromatographic system consisted of Perkin Elmer series 200 micropumps and autosampler equipped with a Waters Atlantic® HILIC Silica 3 μM, 2.1×50 mm column. The mass spectrometer was a PE Sciex API 4000 with electrospray interface in multiple reaction monitoring mode. […] Stock solutions (1 mg/mL zanamivir) were prepared in water. Standards (eight concentrations) were prepared in the appropriate matched matrix (HBSSg or Sprague-Dawley rat plasma containing sodium heparin) and diluted 50-fold with methanol. Experimental samples were treated identically.
Standards and samples were prepared in Sprague Dawley rat plasma containing sodium heparin as an anticoagulant. An eight-point calibration curve was prepared at concentrations of 1000, 750, 500, 250, 100, 50, 25, and 10 ng/mL by serial dilution. Standard samples were treated identically to the study samples.
Plasma samples were extracted by protein precipitation in methanol.
In this example, the bioavailability of Zanamivir was evaluated after intraduodenal doses in male Sprague-Dawley rats. The test compound was dosed at 1.5 mg/animal through intraduodenal routes from glycerol and PBS formulations. Plasma levels were determined by LC-MS/MS analysis. Pharmacokinetic parameters were estimated by a non-compartmental model using WinNonlin v5.2.1 software.

[1] = 50 µL PBS, 50 µL blank Capmul MCM L8 -2 hr, individual rats
[2] = 50 µL PBS, 50 µL blank Capmul MCM L8 -2 hr, mean
[3] = 50 µL PBS, 150 µL blank glycerol -2 hr, mean
[4] = 50 µL PBS, 150 µL blank glycerol -2 hr, individual rats
[5] = 100 µL Glycerol, individual rats
[6] = 150 µL Glycerol, individual rats

In the case of `CC(=O)NC1C(NC(=N)N)C=C(C(=O)O)OC1C(O)C(O)CO` (centres unmarked) [Zanamivir, 5-acetamido-4-guanidino-6-(1,2,3-trihydroxypropyl)-5,6-dihydro-4H-pyran-2-carboxylic acid], the Tmax (1.5 mg, tmax, 100 µL Glycerol, mean) is reported as 43.2 min, the concentration at 0.25 hr [1] is reported as 0.0333 µg/mL and the concentration at 0.25 hr [2] is reported as 0.0295 µg/mL. It also gave a concentration at 0.5 hr [1] of 0.038 µg/mL, a concentration at 0.5 hr [2] of 0.0385 µg/mL and a concentration at 0.83 hr [2] of 0.0108 µg/mL. It also gave a concentration at 1 hr [1] of 0.033 µg/mL, a concentration at 1 hr [2] of 0.0327 µg/mL and a concentration at 1.5 hr [2] of 0.0387 µg/mL. The concentration at 2 hr [2] was 0.0338 µg/mL, the concentration at 0.25 hr [3] was 0.0518 µg/mL and the concentration at 0.5 hr [4] was 0.0502 µg/mL. It also gave a concentration at 0.5 hr [3] of 0.0542 µg/mL, a concentration at 0.83 hr [3] of 0.0244 µg/mL and a concentration at 1 hr [4] of 0.0364 µg/mL. The concentration at 1 hr [3] was 0.0382 µg/mL, the concentration at 1.5 hr [4] was 0.0401 µg/mL and the concentration at 1.5 hr [3] was 0.0401 µg/mL. It also gave a concentration at 2 hr (50 µL PBS, 150 µL blank glycerol -2 hr, individual rats, BLOQ = below 10 ng/mL) of 0.0534 µg/mL, a concentration at 2 hr [3] of 0.0541 µg/mL and a concentration at 0.25 hr [5] of 0.052 µg/mL. The concentration at 0.25 hr (100 µL Glycerol, mean) was 0.0564 µg/mL, the concentration at 0.5 hr [5] was 0.0514 µg/mL and the concentration at 0.5 hr (100 µL Glycerol, mean) was 0.0487 µg/mL. The concentration at 0.83 hr (100 µL Glycerol, mean) was 0.0571 µg/mL, the concentration at 1 hr [5] was 0.0385 µg/mL and the concentration at 1 hr (100 µL Glycerol, mean) was 0.0444 µg/mL. The concentration at 1.5 hr (100 µL Glycerol, mean) was 0.0469 µg/mL, the concentration at 2 hr (100 µL Glycerol, mean) was 0.0542 µg/mL and the concentration at 0.25 hr [6] was 0.109 µg/mL. It also gave a concentration at 0.25 hr (150 µL Glycerol, mean) of 0.0877 µg/mL, a concentration at 0.5 hr (150 µL Glycerol, mean) of 0.0692 µg/mL and a concentration at 0.83 hr [6] of 0.139 µg/mL. For the same compound, the concentration at 0.83 hr (150 µL Glycerol, mean) was 0.107 µg/mL, the concentration at 1 hr [6] was 0.0525 µg/mL and the concentration at 1 hr (150 µL Glycerol, mean) was 0.0499 µg/mL. For the same compound, the concentration at 1.5 hr (150 µL Glycerol, mean) was 0.0366 µg/mL and the concentration at 2 hr (150 µL Glycerol, mean) was 0.0293 µg/mL.
